# Results from patent US11040035B2, “3-oxo-2,6-diphenyl-2,3-dihydropyridazine-4-carboxamides” (BAYER PHARMA AKTIENGESELLSCHAFT, priority 2016, dated 2021).
# Several values for one entry are separate records, joined by “and”; a condition that tells them apart may be missing. Equal entries are not always repeated. Where two headings read alike, the source gives them in different places.
# Experiments:
# AHR [1] = target: T1, AHR (Homo sapiens, UniProt P35869); conditions: 20 h
# T1 sequence (P35869 11-848): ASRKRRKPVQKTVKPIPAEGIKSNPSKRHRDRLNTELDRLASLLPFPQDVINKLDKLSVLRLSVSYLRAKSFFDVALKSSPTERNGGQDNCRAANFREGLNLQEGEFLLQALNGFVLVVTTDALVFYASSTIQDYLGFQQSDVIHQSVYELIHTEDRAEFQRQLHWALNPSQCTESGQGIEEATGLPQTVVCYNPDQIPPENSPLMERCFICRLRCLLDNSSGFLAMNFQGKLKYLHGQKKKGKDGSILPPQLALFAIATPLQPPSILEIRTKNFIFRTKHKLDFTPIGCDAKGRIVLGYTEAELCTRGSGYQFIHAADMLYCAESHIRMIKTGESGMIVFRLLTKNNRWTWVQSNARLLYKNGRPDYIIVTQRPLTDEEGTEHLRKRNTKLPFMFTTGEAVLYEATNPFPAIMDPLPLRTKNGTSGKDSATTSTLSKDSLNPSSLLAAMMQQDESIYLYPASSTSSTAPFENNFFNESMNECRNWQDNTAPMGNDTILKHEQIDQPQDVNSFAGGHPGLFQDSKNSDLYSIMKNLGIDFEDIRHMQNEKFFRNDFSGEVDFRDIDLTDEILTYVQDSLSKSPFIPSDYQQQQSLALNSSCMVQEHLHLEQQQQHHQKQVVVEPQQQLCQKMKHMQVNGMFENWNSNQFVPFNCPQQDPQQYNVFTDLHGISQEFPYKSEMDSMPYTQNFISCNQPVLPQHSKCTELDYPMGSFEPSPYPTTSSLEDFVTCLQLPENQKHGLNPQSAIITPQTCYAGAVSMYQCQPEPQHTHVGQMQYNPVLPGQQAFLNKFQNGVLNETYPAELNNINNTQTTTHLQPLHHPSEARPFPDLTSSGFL
# AHR [2] = target: T1, AHR; assay: In vitro assay 1: antagonism in human cell line (transactivation assay, kynurenic acid prestimulated); conditions: Assay 1: AHR-luc Hum Antagonism IC50 [M], 150 μM kynurenic acid, 20 hours, firefly luciferase
# [3] = tested on: AHR-regulated gene CYP1A1; assay: In vitro assay 3: AHR-regulated CYP1A1 expression in human cell line (U937, qPCR); conditions: Homo sapiens, U-937, 6 h, read-out: Assay 3: Hum CYP1A1 Antagonism IC50 [M], U937 cells, 200 μM KA, 6 hours, qPCR
# [4] = tested on: TNFa production by LPS-stimulated human monocytes; assay: In vitro assay 4: rescue of TNFa production from human primary monocytes; assay type: cell-based; conditions: one value per donor; for Emax: Homo sapiens, Monocyte, 18 h, human monocytes, 10 ng/mL LPS + 200 μM KA, 18 hours, highest percent TNFa rescue relative to highest rescue with GNF-351, read-out: Individual Donors % rescue TNFa normalised to ref cmpd
# Description: In Vitro Assay 4: Rescue of TNFa Production from Human Primary Monocytes
# The ability of the substances to enhance immune cell activity was determined. The substances were tested for their capacity to reverse KA-induced inhibition of TNFa production by LPS-stimulated human monocytes. Human monocytes were purified by negative selection from donor PBMCs using Miltenyi beads and seeded at 2×10^5 cells/well in complete growth medium (RPMI 1640, 10% FCS). Monocytes were incubated with 10 ng/mL LPS (0127:68, #L4516, Sigma) and 200 μM KA (#3375, Sigma) and substances were added at concentrations of 1 μM, 0.3 μM and 0.1 μM and cultured for 18 hours. LPS alone served as the positive control. TNFa production in the supernatant was measured by Meso Scale Discovery immunassay and the ability of the substances to rescue TNFa production was calculated as a percentage of LPS stimulation and KA-induced inhibition and normalized to the donor-specific response with the reference AHR antagonist compound GNF-351 (Smith et al., J Pharmacol Exp Ther, 2011, 338(1):318-27).
# AHR [5] = target: T1, AHR; assay: In vitro assay 2: agonism in human cell line (transactivation assay)
# CT26 tumor cells = assay: In vivo assay: efficacy of example compound and PD-1-L1 axis antagonist in CT26 tumor model; conditions: female Balb/c mice, CT26 s.c.; example 23 30 mg/kg BID p.o.; aPD-L1 (TPP-3911) 10 mg/kg q3d i.p.; treatment from day 5
# Description: In Vivo Assay: Efficacy of Compositions Comprising an Example Compound and a PD-1-L1 Axis Antagonist
# Animals were ordered from Charles River Sulzfeld, Germany and assigned to the study at the age of 8 weeks. Animal husbandry, feeding and health conditions are according to animal welfare guidelines. CT26 cells (aquired from ATCC) were cultivated with RPMI 1640 with 10% FCS and splitted at least 3 times before inoculation. Female Balb/c mice were inoculated with 500.000 CT26 tumor cells in 50% medium/50% matrigel subcutaneously in the flank. After 4 days the animals were randomized and therapeutic treatment started on day 5.
# The anti-PDL1 antibody is a chimera of the variable domain of atezolizumab with murine IgG1 CH1, 2 and 3 domains.
# Tumor size was measured using calipers determining length (a) and width (b). Tumor volume was calculated according to:
# Significance of monotherapies and combination treatment was calculated versus control group as determined by 2-Way ANOVA analysis.
# After 4 days the animals were randomized and therapeutic treatment started on day 5. […] Significance of monotherapies and combination treatment was calculated vs. control group as determined by 2-Way ANOVA analysis.
# [6] = read-out: Assay 2: AHR-luc Hum Agonism IC50, no kynurenic acid, 20 hours, firefly luciferase
# [7] = Assay 2: AHR-luc Hum Agonism IC50 [M], no kynurenic acid, 20 hours, firefly luciferase
Compound,IC50 (AHR [2]) [M],IC50 [3] [M],IC50 (AHR [5]; [6]) [M],IC50 (AHR [5]; [7]) [M],IC50 (AHR [1]) [nM],Emax [4] [%],"T/C, ratio of tumor size under treatment versus tumor size in the control group (CT26 tumor cells)","Individual Donors Conc of highest rescue ([4]; concentration (of 1, 0.3, 0.1 μM tested) at which highest TNFa rescue was observed)"
"Cc1ccc(-c2cc(C(=O)NCC(O)C(F)(F)F)c(=O)n(-c3cc(F)cc(F)c3)n2)cc1 (single isomer, unassigned) [Example 54, 2-(3,5-Difluorophenyl)-6-(4-methylphenyl)-3-oxo-N-(3,3,3-trifluoro-2-hydroxypropyl)-2,3-dihydropyridazine-4-carboxamide]",4.07e-08,–,–,–,> 20000,–,–,–
"O=C(NC(CO)C(F)(F)F)c1cc(-c2ccc(Cl)cc2)nn(-c2cccc(F)c2)c1=O (single isomer, unassigned; (+)) [Example 99, (+)-6-(4-Chlorophenyl)-2-(3-fluorophenyl)-3-oxo-N-(1,1,1-trifluoro-3-hydroxypropan-2-yl)-2,3-dihydropyridazine-4-carboxamide]",1.04e-08,3.77e-09,> 2e-05,–,–,101,–,–
"C[C@@H](CO)NC(=O)c1cc(-c2ccc(Cl)c(Cl)c2)nn(-c2cccc(F)c2)c1=O [Example 300, 6-(3,4-Dichlorophenyl)-2-(3-fluorophenyl)-N-[(2S)-1-hydroxypropan-2-yl]-3-oxo-2,3-dihydropyridazine-4-carboxamide]",1.19e-07,1.07e-07,–,> 2e-05,–,122,–,–
"Cc1cncc(-c2nc(NCCc3c[nH]c4ccccc34)c3ncn(C(C)C)c3n2)c1 [GNF-351, reference compound]",–,–,–,–,–,–,–,0.3 µM and 0.1 µM

# Continued by falling IC50 (AHR [2]), values first:
IC50 (AHR [2]) [M],IC50 [3] [M],IC50 (AHR [5]; [6]) [M],IC50 (AHR [5]; [7]) [M],Compound,IC50 (AHR [1]) [nM],Emax [4] [%],"T/C, ratio of tumor size under treatment versus tumor size in the control group (CT26 tumor cells)","Individual Donors Conc of highest rescue ([4]; concentration (of 1, 0.3, 0.1 μM tested) at which highest TNFa rescue was observed)"
4.52e-07,6e-07,–,> 2e-05,"O=C(NCC1(O)CCCCC1)c1cc(-c2ccc(Cl)cc2)nn(-c2cccc(F)c2)c1=O [Example 129, 6-(4-Chlorophenyl)-2-(3-fluorophenyl)-N-[(1-hydroxycyclohexyl)methyl]-3-oxo-2,3-dihydropyridazine-4-carboxamide]",–,30,–,–
3.99e-08,7.07e-08,–,> 2e-05,"C[C@@H](CO)NC(=O)c1cc(-c2ccc(Cl)cc2)nn(-c2cccc(F)c2)c1=O [Example 23, 6-(4-Chlorophenyl)-2-(3-fluorophenyl)-N-[(2S)-1-hydroxypropan-2-yl]-3-oxo-2,3-dihydropyridazine-4-carboxamide]",–,–,0.75,–
3.97e-08,8.05e-08,–,> 2e-05,"CC[C@@H](CO)NC(=O)c1cc(-c2ccc(Cl)c(F)c2)nn(-c2cccc(F)c2)c1=O [Example 288, 6-(4-Chloro-3-fluorophenyl)-2-(3-fluorophenyl)-N-[(2S)-1-hydroxybutan-2-yl]-3-oxo-2,3-dihydropyridazine-4-carboxamide]",–,82,–,–
2.73e-08,8.1e-08,–,> 2e-05,"CC(C)[C@@H](CO)NC(=O)c1cc(-c2ccc(Cl)c(Cl)c2)nn(-c2cccc(F)c2)c1=O [Example 301, 6-(3,4-Dichlorophenyl)-2-(3-fluorophenyl)-N-[(2S)-1-hydroxy-3-methylbutan-2-yl]-3-oxo-2,3-dihydropyridazine-4-carboxamide]",–,112,–,–
6.07e-09,2.89e-09,> 2e-05,–,"CC(C)(O)C(NC(=O)c1cc(-c2ccc(Cl)cc2)nn(-c2cccc(F)c2)c1=O)C(F)(F)F (single isomer, unassigned) [Example 279]",–,53,–,–
